# Assay results from the OligoGym collection.
# HELM strings list units from the 5' end as sugar, base in round brackets, then linkage (d deoxyribose, r ribose, m 2'-O-methyl, p phosphodiester). Strings are as the collection lists them; they lack the last nucleoside at the 3' end of the tested compound. [moe] = 2'-O-(2-methoxyethyl) (MOE); [sp] = phosphorothioate linkage; [m5C] = 5-methylcytosine
# Molecular target: UBE3A-ATS
# Test: mouse, dose not given
# Conditions: ASO
row,Substance,3 h FOB score [score 0-7]
1,RNA1{[moe](G)[sp].[moe](G)p.[moe](T)p.[moe]([m5C])p.[moe](A)[sp].d(T)[sp].d([m5C])[sp].d(T)[sp].d([m5C])[sp].d(G)[sp].d(G)[sp].d(G)[sp].d(T)[sp].[moe](A)p.[moe](T)p.[moe](A)[sp].[moe](T)}$$$$ (last 3' nucleoside missing),6
2,RNA1{[moe](G)[sp].[moe](G)p.[moe](T)p.[moe]([m5C])p.[moe](A)p.[moe](A)p.d([m5C])[sp].d([m5C])[sp].d(A)[sp].d(A)[sp].d(T)[sp].d(T)[sp].d(T)[sp].d(G)[sp].d([m5C])[sp].d(T)[sp].[moe](A)p.[moe](T)[sp].[moe](T)}$$$$ (last 3' nucleoside missing),5
3,RNA1{[moe](G)[sp].[moe](G)p.[moe](T)p.[moe]([m5C])p.[moe](A)p.[moe](T)[sp].d([m5C])[sp].d(T)[sp].d([m5C])[sp].d(G)[sp].d(G)[sp].d(G)[sp].d(T)[sp].d(A)[sp].[moe](T)p.[moe](A)[sp].[moe](T)}$$$$ (last 3' nucleoside missing),6
4,RNA1{[moe](G)[sp].[moe](G)p.[moe](T)p.[moe]([m5C])p.[moe](A)p.[moe](T)p.d([m5C])[sp].d(T)[sp].d([m5C])[sp].d(G)[sp].d(G)[sp].d(G)[sp].d(T)[sp].d(A)[sp].d(T)[sp].d(A)[sp].[moe](T)p.[moe](A)[sp].[moe](A)}$$$$ (last 3' nucleoside missing),6
5,RNA1{[moe](G)[sp].[moe](G)p.[moe](T)p.[moe]([m5C])p.[moe](A)p.d(A)[sp].d([m5C])[sp].d([m5C])[sp].d(A)[sp].d(A)[sp].d(T)[sp].d(T)[sp].d(T)[sp].d(G)[sp].d([m5C])[sp].[moe](T)p.[moe](A)p.[moe](T)[sp].[moe](T)}$$$$ (last 3' nucleoside missing),3.8
6,RNA1{[moe](G)[sp].[moe](G)p.[moe](T)p.[moe]([m5C])p.[moe](A)p.d(G)[sp].d(A)[sp].d(T)[sp].d(T)[sp].d([m5C])[sp].d([m5C])[sp].d(T)[sp].d(A)[sp].d(A)[sp].d(A)[sp].[moe](T)p.[moe](A)p.[moe]([m5C])[sp].[moe](G)}$$$$ (last 3' nucleoside missing),1
7,RNA1{[moe](G)[sp].[moe](G)p.[moe](T)p.[moe]([m5C])p.[moe](A)p.d(T)[sp].d([m5C])[sp].d(T)[sp].d([m5C])[sp].d(G)[sp].d(G)[sp].d(G)[sp].d(T)[sp].d(A)[sp].d(T)[sp].[moe](A)p.[moe](T)p.[moe](A)[sp].[moe](A)}$$$$ (last 3' nucleoside missing),4.2
8,RNA1{[moe](G)[sp].[moe](G)p.[moe](T)p.[moe]([m5C])p.[moe]([m5C])p.d(A)[sp].d(T)[sp].d(A)[sp].d(G)[sp].d(A)[sp].d(T)[sp].d(G)[sp].d(T)[sp].d([m5C])[sp].d(A)[sp].[moe](G)p.[moe](T)p.[moe](T)[sp].[moe](A)}$$$$ (last 3' nucleoside missing),5.5
9,RNA1{[moe](G)[sp].[moe](G)p.[moe](T)p.[moe]([m5C])p.d(A)[sp].d(A)[sp].d([m5C])[sp].d([m5C])[sp].d(A)[sp].d(A)[sp].d(T)[sp].d(T)[sp].d(T)[sp].d(G)[sp].[moe]([m5C])p.[moe](T)p.[moe](A)p.[moe](T)[sp].[moe](T)}$$$$ (last 3' nucleoside missing),4.7
10,RNA1{[moe](G)[sp].[moe](G)p.[moe](T)p.[moe]([m5C])p.d(A)[sp].d(T)[sp].d([m5C])[sp].d(T)[sp].d([m5C])[sp].d(G)[sp].d(G)[sp].d(G)[sp].d(T)[sp].d(A)[sp].[moe](T)p.[moe](A)p.[moe](T)p.[moe](A)[sp].[moe](A)}$$$$ (last 3' nucleoside missing),5.5
11,RNA1{[moe](G)[sp].[moe](G)p.[moe]([m5C])p.[moe](A)p.[moe](A)p.d(G)[sp].d([m5C])[sp].d(A)[sp].d(A)[sp].d([m5C])[sp].d(T)[sp].d(A)[sp].d(T)[sp].d(G)[sp].d(G)[sp].[moe](G)p.[moe](T)p.[moe](G)[sp].[moe](G)}$$$$ (last 3' nucleoside missing),6.2
12,RNA1{[moe](G)[sp].[moe](G)p.[moe]([m5C])p.[moe](A)p.[moe](A)p.d(T)[sp].d(G)[sp].d(G)[sp].d(A)[sp].d([m5C])[sp].d(T)[sp].d(T)[sp].d(A)[sp].d(G)[sp].d(T)[sp].[moe](A)p.[moe]([m5C])p.[moe](A)[sp].[moe]([m5C])}$$$$ (last 3' nucleoside missing),2.3
13,RNA1{[moe](G)[sp].[moe](G)p.[moe]([m5C])p.[moe](A)p.[moe](G)p.d([m5C])[sp].d(T)[sp].d([m5C])[sp].d([m5C])[sp].d(T)[sp].d(G)[sp].d(A)[sp].d([m5C])[sp].d(A)[sp].d(A)[sp].[moe](A)p.[moe](T)p.[moe](T)[sp].[moe](A)}$$$$ (last 3' nucleoside missing),4
14,RNA1{[moe](G)[sp].[moe](G)p.[moe]([m5C])p.[moe](T)p.[moe](T)p.d(T)[sp].d(A)[sp].d(T)[sp].d(A)[sp].d([m5C])[sp].d(T)[sp].d(T)[sp].d(T)[sp].d(A)[sp].d([m5C])[sp].[moe]([m5C])p.[moe]([m5C])p.[moe](A)[sp].[moe](A)}$$$$ (last 3' nucleoside missing),1
15,RNA1{[moe](G)[sp].[moe](G)p.[moe]([m5C])p.[moe]([m5C])p.[moe](T)p.d(G)[sp].d(A)[sp].d([m5C])[sp].d(T)[sp].d(A)[sp].d(G)[sp].d(G)[sp].d([m5C])[sp].d(A)[sp].d(T)[sp].[moe](T)p.[moe](G)p.[moe](A)[sp].[moe](A)}$$$$ (last 3' nucleoside missing),3
16,RNA1{[moe](G)[sp].[moe](T)p.[moe](A)p.[moe](A)p.[moe](G)p.d(A)[sp].d(G)[sp].d(T)[sp].d(T)[sp].d(A)[sp].d(G)[sp].d([m5C])[sp].d(T)[sp].d(A)[sp].d(T)[sp].[moe](T)p.[moe]([m5C])p.[moe]([m5C])[sp].[moe]([m5C])}$$$$ (last 3' nucleoside missing),4
17,RNA1{[moe](G)[sp].[moe](T)p.[moe](A)p.[moe](A)p.[moe](G)p.d(T)[sp].d(A)[sp].d(T)[sp].d(A)[sp].d(G)[sp].d(A)[sp].d(T)[sp].d(G)[sp].d([m5C])[sp].d([m5C])[sp].[moe](T)p.[moe]([m5C])p.[moe](T)[sp].[moe]([m5C])}$$$$ (last 3' nucleoside missing),3.8
18,RNA1{[moe](G)[sp].[moe](T)p.[moe](A)p.[moe](A)p.[moe](T)p.d(G)[sp].d(A)[sp].d(T)[sp].d(T)[sp].d(T)[sp].d(G)[sp].d([m5C])[sp].d([m5C])[sp].d([m5C])[sp].d(T)[sp].[moe]([m5C])p.[moe]([m5C])p.[moe](T)[sp].[moe](A)}$$$$ (last 3' nucleoside missing),6
19,RNA1{[moe](G)[sp].[moe](T)p.[moe](A)p.[moe](G)p.[moe](A)p.d(T)[sp].d(A)[sp].d(A)[sp].d([m5C])[sp].d(T)[sp].d(T)[sp].d(T)[sp].d(A)[sp].d([m5C])[sp].d([m5C])[sp].[moe](T)p.[moe](T)p.[moe](G)[sp].[moe](A)}$$$$ (last 3' nucleoside missing),0
20,RNA1{[moe](G)[sp].[moe](T)p.[moe](A)p.[moe](G)p.[moe](G)p.d(A)[sp].d(G)[sp].d(A)[sp].d(T)[sp].d(A)[sp].d(G)[sp].d(G)[sp].d([m5C])[sp].d(A)[sp].d(G)[sp].[moe](T)p.[moe](G)p.[moe]([m5C])[sp].[moe](A)}$$$$ (last 3' nucleoside missing),5
21,RNA1{[moe](G)[sp].[moe](T)p.[moe](A)p.[moe](G)p.[moe]([m5C])p.d(T)[sp].d(A)[sp].d(T)[sp].d(A)[sp].d(G)[sp].d(G)[sp].d(T)[sp].d(G)[sp].d(T)[sp].d([m5C])[sp].[moe](A)p.[moe]([m5C])p.[moe](A)[sp].[moe](T)}$$$$ (last 3' nucleoside missing),6.2
22,RNA1{[moe](G)[sp].[moe](T)p.[moe](A)p.[moe](T)p.[moe](A)p.d(T)[sp].d(A)[sp].d([m5C])[sp].d(T)[sp].d([m5C])[sp].d([m5C])[sp].d(A)[sp].d(G)[sp].d(G)[sp].d(T)[sp].[moe](T)p.[moe](G)p.[moe](T)[sp].[moe](G)}$$$$ (last 3' nucleoside missing),5.2
23,RNA1{[moe](G)[sp].[moe](T)p.[moe](A)p.[moe](T)p.[moe](A)p.d(T)[sp].d(T)[sp].d(A)[sp].d(G)[sp].d(T)[sp].d([m5C])[sp].d(T)[sp].d(A)[sp].d(A)[sp].d(G)[sp].[moe](G)p.[moe]([m5C])p.[moe](A)[sp].[moe](G)}$$$$ (last 3' nucleoside missing),3.7
24,RNA1{[moe](G)[sp].[moe](T)p.[moe](A)p.[moe](T)p.[moe](A)p.d(T)[sp].d(T)[sp].d(G)[sp].d(T)[sp].d(A)[sp].d(G)[sp].d([m5C])[sp].d(T)[sp].d(T)[sp].d(T)[sp].[moe](T)p.[moe]([m5C])p.[moe](T)[sp].[moe](A)}$$$$ (last 3' nucleoside missing),6.2
25,RNA1{[moe](G)[sp].[moe](T)p.[moe](A)p.[moe](T)p.[moe](G)p.d(G)[sp].d(T)[sp].d(A)[sp].d(T)[sp].d([m5C])[sp].d(T)[sp].d(T)[sp].d(G)[sp].d([m5C])[sp].d(A)[sp].[moe](G)p.[moe](T)p.[moe](A)[sp].[moe](G)}$$$$ (last 3' nucleoside missing),5.2
26,RNA1{[moe](G)[sp].[moe](T)p.[moe](A)p.[moe](T)p.[moe](T)p.d(G)[sp].d(A)[sp].d([m5C])[sp].d(A)[sp].d([m5C])[sp].d([m5C])[sp].d(T)[sp].d([m5C])[sp].d([m5C])[sp].d(A)[sp].[moe](A)p.[moe]([m5C])p.[moe](T)[sp].[moe](G)}$$$$ (last 3' nucleoside missing),2
27,RNA1{[moe](G)[sp].[moe](T)p.[moe](A)p.[moe](T)p.[moe]([m5C])p.d(A)[sp].d(G)[sp].d(G)[sp].d([m5C])[sp].d(A)[sp].d(A)[sp].d([m5C])[sp].d(A)[sp].d(G)[sp].d(A)[sp].[moe](A)p.[moe](T)p.[moe]([m5C])[sp].[moe](T)}$$$$ (last 3' nucleoside missing),4.3
